Where two headings read alike, the source gives them in different places.
Tests used:
Assay in all cases: microbe, parasite or virus in culture
Conditions in all cases: Hepatitis C virus
[1] = system: stable HCV 1a RLuc replicon cells (genotype 1a H77 replicon); type: cell-based
Experimental: (§1) Evaluation of Cell-Based Anti-HCV Activity:
(§2) Antiviral potency (EC50) was determined using a Renilla luciferase (RLuc)-based HCV replicon reporter assay. […] To perform the assay for genotype 2a (with M31 present in NS5A) or 2b, NS5A chimeric genotype 2a JFH-1 replicons that encodes a RLuc-Neo reporter and either genotype 2a J6 strain NS5A gene or genotype 2b MD2b-1 strain NS5A gene (both with M31 present) respectively, were either transiently transfected (t) into Huh-Lunet cells or were established as stably replicating replicon cells (s) is provided. Either cells were dispensed into 384-well plates for EC50 assays. To perform the assay for genotype 3 and 4, NS5A chimeric genotype 1b Con1 replicons that encodes a Pi-RLuc reporter and either genotype 3a S52 strain NS5A gene or genotype 4a ED43 strain NS5A gene respectively, were transiently transfected (t) into Huh-Lunet cells, which were subsequently dispensed into 384-well plates. Compounds were dissolved in DMSO at a concentration of 10 mM and diluted in DMSO either manually or using an automated pipeting instrument. Serially 3-fold diluted compounds were either manually mixed with cell culture media and added to the seeded cells or directly added to the cells using an automated instrument. […] 72 hours later, cells were lysed and Renilla luciferase activity quantified as recommended by the manufacturer (Promega-Madison, Wis.). Non-linear regression was performed to calculate EC50 values.

[2] = system: stable HCV 2a JFH-1 Rluc replicon cells (L31 present in NS5A); type: cell-based
[3] = system: NS5A chimeric genotype 1b Con1 replicon with genotype 3a S52 strain NS5A gene; type: cell-based, HCV
Experimental: as §1, §2

[4] = system: NS5A chimeric genotype 2a JFH-1 replicon with genotype 2a J6 strain NS5A gene (M31 present); type: cell-based, HCV
Experimental: as §1, §2

[5] = system: NS5A chimeric genotype 2a JFH-1 replicon with genotype 2b MD2b-1 strain NS5A gene (M31 present); type: cell-based, HCV
Experimental: as §1, §2

[6] = system: 1a Pi-Rluc replicon with Q30R in genotype 1a NS5A; type: cell-based, HCV
Experimental: as §2
To determine the antiviral potency (EC50) against resistance mutants, resistance mutations, including M28T, Q30R, Q30H, L31M, and Y93C in genotype 1a NS5A and Y93H in genotype 1b NS5A, were introduced individually into either 1a Pi-Rluc or 1b Pi-Rluc replicons by site directed mutagenesis. Replicon RNA of each resistant mutant was transiently transfected into Huh-7-derived cured-51 cells and antiviral potency was determined on these transfected cells as described above.

[7] = system: NS5A chimeric genotype 1b Con1 replicon with genotype 4a ED43 strain NS5A gene; type: cell-based, HCV

Structure (SMILES) | EC50 ([1]; read-out: 1a) | EC50 ([1]; read-out: 1a (nM)) | EC50 ([2]; read-out: 2a JFH) | EC50 ([2]; read-out: 2a JFH (nM)) | EC50 ([3]; read-out: 3a) | EC50 ([3]; read-out: 3a (nM)) | EC50 ([4]; read-out: 2a J6) | EC50 ([4]; read-out: 2a Jb (t) (nM)) | EC50 ([5]; read-out: 2b) | EC50 ([5]; read-out: 2b (s) (nM)) | EC50 ([5]; read-out: 2b (t) (nM)) | EC50 ([6]; read-out: 1a Q30R) | EC50 ([6]; read-out: 1a Q30R (nM)) | EC50 ([4]; read-out: 2a J6 (s) (nM)) | EC50 ([7]; read-out: 4a) | EC50 ([7]; read-out: 4a (s) (nM)) | EC50 ([7]; read-out: 4a (t) (nM))
COC(=O)N[C@H](C(=O)N1C[C@@H](C)C[C@H]1c1ncc(-c2ccc3c(c2)COc2cc4c(ccc5nc([C@@H]6CC[C@H](C)N6C(=O)[C@@H](NC(=O)OC)C(C)C)[nH]c54)cc2-3)[nH]1)C(C)C [Example QG, Methyl {(2S)-1-[(2S,5S)-2-(9-{2-[(2S,4S)-1-{(2S)-2-[(methoxycarbonyl)amino]-3-methylbutanoyl}-4-methylpyrrolidin-2-yl]-1H-imidazol-5-yl}-1,11-dihydroisochromeno[4′,3′:6,7]naphtho[1,2-d]imidazol-2-yl)-5-methylpyrrolidin-1-yl]-3-methyl-1-oxobutan-2-yl}carbamate] | < 1 nM | 0.005 nM | < 1 nM | 0.004 nM | < 1 nM | 0.016 nM | < 1 nM | 0.551 nM | < 1 nM | 0.043 nM | 0.065 nM | < 1 nM | 0.071 nM | – | – | – | –
COC(=O)N[C@H](C(=O)N1[C@@H](C)CC[C@H]1c1nc2ccc3cc4c(cc3c2[nH]1)OCc1cc(-c2cnc([C@@H]3C[C@H](C)CN3C(=O)[C@@H](NC(=O)OC)[C@@H](C)OC)[nH]2)ccc1-4)C(C)C [Example QH, Methyl {(2S)-1-[(2S,5S)-2-(9-{2-[(2S,4S)-1-{(2S,3R)-3-methoxy-2-[(methoxycarbonyl)amino]butanoyl}-4-methylpyrrolidin-2-yl]-1H-imidazol-5-yl}-1,11-dihydroisochromeno[4′,3′:6,7]naphtho[1,2-d]imidazol-2-yl)-5-methylpyrrolidin-1-yl]-3-methyl-1-oxobutan-2-yl}carbamate] | < 1 nM | 0.007 nM | < 1 nM | 0.005 nM | < 1 nM | 0.02 nM | < 1 nM | 0.182 nM | < 1 nM | 0.049 nM | 0.051 nM | < 1 nM | 0.051 nM | – | – | – | –
COC[C@@H]1C[C@@H](c2nc3c([nH]2)-c2cc4c(cc2CC3)-c2ccc(-c3cnc([C@@H]5CCCN5C(=O)[C@@H](NC(=O)OC)C(C)C)[nH]3)cc2CO4)N(C(=O)[C@@H](NC(=O)OC)C(C)C)C1 [Compound 493] | < 1 nM | 0.036 nM | < 1 nM | 0.008 nM | < 1 nM | 0.05 nM | > 5 nM | – | < 1 nM | 0.65 nM | – | – | – | 5.04 nM | < 1 nM | 0.018 nM | 0.013 nM
COC(=O)N[C@H](C(=O)N1CCC[C@H]1c1ncc(-c2ccc3c(c2)COc2cc4c(ccc5nc([C@@H]6C[C@H]7C[C@H]7N6C(=O)[C@@H](NC(=O)OC)C(C)C)[nH]c54)cc2-3)[nH]1)C(C)C [Compound 518] | < 1 nM | 0.005 nM | < 1 nM | 0.006 nM | < 1 nM | 0.005 nM | 1 to 4.99 nM | – | < 1 nM | 0.643 nM | – | – | – | 2.49 nM | < 1 nM | 0.011 nM | 0.004 nM
COC(=O)N[C@H](C(=O)N1CCCC1c1ncc(-c2ccc3c(c2)COc2cc4c(ccc5nc([C@@H]6C[C@@H]7CCC[C@@H]7N6C(=O)[C@@H](NC(=O)OC)C(C)C)[nH]c54)cc2-3)[nH]1)C(C)C (stereo partly drawn) [Example PO, methyl {(2S)-1-[2-(5-{2-[(2S,3aS,6aS)-1-{(2S)-2-[(methoxycarbonyl)amino]-3-methylbutanoyl}octahydrocyclopenta[b]pyrrol-2-yl]-1,11-dihydroisochromeno[4′,3′:6,7]naphtho[1,2-d]imidazol-9-yl}-1H-imidazol-2-yl)pyrrolidin-1-yl]-3-methyl-1-oxobutan-2-yl}carbamate] | < 1 nM | 0.013 nM | < 1 nM | 0.011 nM | < 1 nM | 0.012 nM | 1 to 4.99 nM | – | < 1 nM | 0.47 nM | – | – | – | 3.13 nM | < 1 nM | 0.013 nM | 0.013 nM
COC[C@H]1C[C@@H](c2nc3ccc4cc5c(cc4c3[nH]2)OCc2cc(-c3cnc([C@@H]4CCCN4C(=O)[C@H](NC(=O)C4CC4)c4ccccc4)[nH]3)ccc2-5)N(C(=O)[C@@H](NC(=O)OC)C(C)C)C1 [Compound 510] | < 1 nM | 0.021 nM | < 1 nM | 0.009 nM | < 1 nM | 0.008 nM | < 1 nM | 0.007 nM | < 1 nM | 0.02 nM | 0.017 nM | – | – | 0.018 nM | < 1 nM | 0.072 nM | 0.016 nM
CC[C@H](C)[C@H](NC(=O)OC)C(=O)N1C[C@@H](COC)C[C@H]1c1nc2ccc3cc4c(cc3c2[nH]1)OCc1cc(-c2cnc([C@@H]3CC[C@H](C)N3C(=O)[C@@H](NC(=O)OC)C(C)C)[nH]2)ccc1-4 [Example ON, methyl {(2S)-1-[(2S,4S)-2-(5-{2-[(2S,5S)-1-{(2S,3S)-2-[(methoxycarbonyl)amino]-3-methylpentanoyl}-4-(methoxymethyl)-2-yl]-1,11-dihydroisochromeno[4′,3′:6,7]naphtho[1,2-d]imidazol-9-yl}-1H-imidazol-2-yl)-5-methylpyrrolidin-1-yl]-3-methyl-1-oxobutan-2-yl}carbamate] | < 1 nM | 0.005 nM | < 1 nM | 0.004 nM | – | – | < 1 nM | 0.068 nM | – | – | 0.086 nM | < 1 nM | – | – | – | – | –
CCC(=O)N[C@@H](C(=O)N1CCC[C@H]1c1ncc(-c2ccc3c(c2)COc2cc4c(ccc5nc([C@@H]6CCCN6C(=O)[C@@H](NC(=O)OC)C(C)C)[nH]c54)cc2-3)[nH]1)c1ccccc1 [Compound 499] | < 1 nM | 0.057 nM | < 1 nM | 0.008 nM | < 1 nM | 0.01 nM | < 1 nM | – | < 1 nM | 0.04 nM | – | – | – | 0.206 nM | < 1 nM | 0.005 nM | 0.021 nM
CC[C@H](C)[C@H](NC(=O)OC)C(=O)N1C[C@@H](COC)C[C@H]1c1ncc(-c2ccc3c(c2)COc2cc4c(ccc5nc([C@@H]6C[C@H](COC)CN6C(=O)[C@@H](NC(=O)OC)[C@@H](C)CC)[nH]c54)cc2-3)[nH]1 [Example OJ] | < 1 nM | 0.018 nM | < 1 nM | 0.013 nM | < 1 nM | 0.259 nM | < 1 nM | – | < 1 nM | 0.813 nM | – | – | – | 0.502 nM | < 1 nM | 0.017 nM | 0.026 nM
COC[C@H]1C[C@@H](c2nc3ccc4cc5c(cc4c3[nH]2)OCc2cc(-c3ccc4nc([C@@H]6CCCN6C(=O)[C@@H](NC(=O)OC)C(C)C)[nH]c4c3)ccc2-5)N(C(=O)[C@@H](NC(=O)OC)C(C)C)C1 | < 1 nM | 0.003 nM | < 1 nM | 0.021 nM | 1 to 4.99 nM | 1.09 nM | > 5 nM | – | > 5 nM | 44.4 nM | – | – | – | 44.4 nM | < 1 nM | 0.025 nM | 0.015 nM
COC(=O)N[C@H](C(=O)N1CCC[C@H]1c1ncc(-c2ccc3c(c2)COc2cc4c(cc2-3)CCc2nc([C@@H]3CCCN3C(=O)[C@H](NC(=O)C3CC3)c3ccccc3)[nH]c2-4)[nH]1)C(C)C [Compound 503] | < 1 nM | 0.062 nM | < 1 nM | 0.012 nM | < 1 nM | 0.016 nM | < 1 nM | – | < 1 nM | 0.037 nM | – | – | – | 0.155 nM | < 1 nM | 0.025 nM | 0.028 nM
